# In patent publication US9738932B2, “Biomarkers for cardiovascular side-effects induced by cox-2 inhibitory compounds” (FIRALIS SAS, priority 2005, dated 2017):
# Tested on: mRNA expression in cardiovascular tissues
# Experiment: Affymetrix GeneChip mRNA expression profiling of monkey tissues (iliac vein, pulmonary vein, aorta, carotid artery, heart) after two-week oral-gavage treatment
# Conditions: iliac vein; group avg, Vioxx without A60055
structure (smiles),measurement,value
O=C(O)Cc1ccccc1Nc1c(Cl)cccc1Cl [Voltaren],HFE (211329_x_at) avg fold change vs control,0.9 fold
same,HFE (211332_x_at) avg fold change vs control,0.9 fold
same,HFE (211863_x_at) avg fold change vs control,1.0 fold
same,HFE (211866_x_at) avg fold change vs control,0.9 fold
same,HHL (203020_at) avg fold change vs control,0.8 fold
same,HLA-A (211528_x_at) avg fold change vs control,1.1 fold
same,HLA-A (211529_x_at) avg fold change vs control,1.2 fold
same,HLA-A (211530_x_at) avg fold change vs control,1.6 fold
same,HLA-A (215313_x_at) avg fold change vs control,1.3 fold
same,HLA-B (208729_x_at) avg fold change vs control,1.2 fold
same,HLA-B (209140_x_at) avg fold change vs control,1.2 fold
same,HLA-B (211911_x_at) avg fold change vs control,1.2 fold
same,HLA-C (208812_x_at) avg fold change vs control,1.2 fold
same,HLA-C (214459_x_at) avg fold change vs control,1.3 fold
same,HLA-C (216526_x_at) avg fold change vs control,1.5 fold
same,HLA-DMA (217478_s_at) avg fold change vs control,1.3 fold
same,HLA-DMB (203932_at) avg fold change vs control,1.0 fold
same,HLA-DQA1 (212671_s_at) avg fold change vs control,1.2 fold
same,HLA-DQB1 (209823_x_at) avg fold change vs control,1.3 fold
same,HLA-DQB1 (211654_x_at) avg fold change vs control,1.6 fold
same,HLA-DQB1 (211656_x_at) avg fold change vs control,1.2 fold
same,HLA-DQB2 (212998_x_at) avg fold change vs control,2.2 fold
same,HLA-DRA (208894_at) avg fold change vs control,1.1 fold
same,HLA-DRA (210982_s_at) avg fold change vs control,1.0 fold
same,HLA-DRB1 (215193_x_at) avg fold change vs control,1.3 fold
same,HLA-DRB3 (209312_x_at) avg fold change vs control,1.1 fold
same,HLA-DRB6 (217362_x_at) avg fold change vs control,1.0 fold
same,HLA-E (200905_x_at) avg fold change vs control,1.2 fold
same,HLA-E (217456_x_at) avg fold change vs control,1.2 fold
same,HLA-F (204806_x_at) avg fold change vs control,1.0 fold
same,HLA-F (221875_x_at) avg fold change vs control,1.0 fold
same,ICAM1 (202638_s_at) avg fold change vs control,1.5 fold
same,ICAM1 (215485_s_at) avg fold change vs control,1.1 fold
same,ICSBP1 (204057_at) avg fold change vs control,1.1 fold
same,IFI27 (202411_at) avg fold change vs control,5.6 fold
same,IFI30 (201422_at) avg fold change vs control,1.4 fold
same,IFI44 (214453_s_at) avg fold change vs control,1.7 fold
same,IFIT1 (203153_at) avg fold change vs control,1.0 fold
same,IFIT2 (217502_at) avg fold change vs control,0.8 fold
same,IFIT4 (204747_at) avg fold change vs control,0.9 fold
same,IFITM2 (201315_x_at) avg fold change vs control,1.6 fold
same,IFITM3 (212203_x_at) avg fold change vs control,1.3 fold
same,IGF1 (209541_at) avg fold change vs control,1.2 fold
same,IGFBP4 (201508_at) avg fold change vs control,0.8 fold
same,IL1A (208200_at) avg fold change vs control,1.2 fold
same,IL2RG (204116_at) avg fold change vs control,1.2 fold
same,IL27RA (205926_at) avg fold change vs control,1.3 fold
same,INDO (210029_at) avg fold change vs control,1.4 fold
same,INPP5D (203332_s_at) avg fold change vs control,1.2 fold
same,IRF1 (202531_at) avg fold change vs control,1.1 fold
same,IRF7 (208436_s_at) avg fold change vs control,1.2 fold
same,ISGF3G (203882_at) avg fold change vs control,1.4 fold
same,ITGB2 (202803_s_at) avg fold change vs control,1.0 fold
same,JAK1 (214377_s_at) avg fold change vs control,1.1 fold
same,KLKB1 (206541_at) avg fold change vs control,1.2 fold
same,LAIR1 (208071_s_at) avg fold change vs control,0.8 fold
same,LCK (204890_s_at) avg fold change vs control,0.9 fold
same,LCP2 (205270_s_at) avg fold change vs control,1.2 fold
same,LILRB1 (207857_at) avg fold change vs control,0.8 fold
same,LILRB1 (211100_x_at) avg fold change vs control,1.2 fold
same,LILRB3 (208594_x_at) avg fold change vs control,1.4 fold
same,LILRB3 (210225_x_at) avg fold change vs control,1.3 fold
same,LRMP (204674_at) avg fold change vs control,1.6 fold
same,LY86 (205859_at) avg fold change vs control,1.2 fold
same,LY96 (206584_at) avg fold change vs control,1.4 fold
same,LYN (210754_s_at) avg fold change vs control,1.1 fold
same,MAF (209348_s_at) avg fold change vs control,0.9 fold
same,PCOLCE (202465_at) avg fold change vs control,0.3 fold
same,PLA2G4C (209785_s_at) avg fold change vs control,1.0 fold
same,PLCL2 (216217_at) avg fold change vs control,1.0 fold
same,PLSCR1 (202446_s_at) avg fold change vs control,1.5 fold
same,PRC1 (218009_s_at) avg fold change vs control,0.8 fold
same,PRG1 (201858_s_at) avg fold change vs control,1.1 fold
same,PRG1 (201859_at) avg fold change vs control,1.2 fold
same,PTPN22 (206060_s_at) avg fold change vs control,0.9 fold
same,PTPRC (207238_s_at) avg fold change vs control,1.3 fold
same,SOCS3 (206360_s_at) avg fold change vs control,1.4 fold
same,STAT1 (209969_s_at) avg fold change vs control,2.3 fold
same,STAT1 (AFFX-HUMISGF3A/M97935_5_at) avg fold change vs control,1.0 fold
same,STAT1 (AFFX-HUMISGF3A/M97935_MA_at) avg fold change vs control,1.0 fold
same,STAT1 (AFFX-HUMISGF3A/M97935_MB_at) avg fold change vs control,1.1 fold
same,TAPBP (208829_at) avg fold change vs control,1.0 fold
same,TCTEL1 (201999_s_at) avg fold change vs control,0.9 fold
same,TLR1 (210176_at) avg fold change vs control,1.3 fold
same,TLR2 (204924_at) avg fold change vs control,1.4 fold
same,TNFAIP3 (202643_s_at) avg fold change vs control,1.3 fold
same,TNFAIP3 (202644_s_at) avg fold change vs control,1.7 fold
same,TNFSF6 (210865_at) avg fold change vs control,1.2 fold
same,TNFSF10 (202687_s_at) avg fold change vs control,1.2 fold
same,TNFSF10 (202688_at) avg fold change vs control,1.1 fold
same,TRGC2 (211144_x_at) avg fold change vs control,1.0 fold
same,TRGC2 (216920_s_at) avg fold change vs control,1.2 fold
same,VCAM1 (203868_s_at) avg fold change vs control,1.4 fold
same,XCL1 (206366_x_at) avg fold change vs control,1.8 fold
same,XCL1 (214567_s_at) avg fold change vs control,0.5 fold
same,XLKD1 (219059_s_at) avg fold change vs control,1.4 fold
same,cig5 (213797_at) avg fold change vs control,2.1 fold
